Measurements taken from US8329645B2, “Polymyxin derivatives and uses thereof” (priority 2008, dated 2012).

What was measured:
[1] = tested on: E. coli IH3080; assay: Growth inhibition around wells on LB agar plates; format: cell-based, Escherichia coli
Method: Peptides synthesized in Example 1, all carrying at least two (2) but not more than three (3) positive charges, were studied for their ability to inhibit the growth of E. coli. This was tested employing LB agar (LB Agar Lennox, Difco, BD, Sparks, Md., U.S.A) plates. The indicator organism E. coli IH3080 (K1:O018) was an encapsulated strain originally isolated from a neonate suffering from meningitis (Vaara et al. 1984) and obtained from National Public Health Institute, Helsinki, Finland.
(§1) From an overnight-grown culture of IH3080 on LB agar, a suspension of approx. 10^8 cells/ml was prepared in 0.9% NaCl. Aliquots of this suspension were then pipetted on the agar plates and the plates were gently shaken to spread the suspension evenly on the entire surface of the plate. Thereafter, the unabsorbed part of the suspension was removed by using a Pasteur pipette. After the surface had dried, small wells (diameter, 2 mm) were drilled on the plates (five wells per plate) by using a sterile sharp-edged narrow metal tube, single-use pipette tip, and vacuum suction. An alternative method used a swab to spread the inoculum. […] Controls included 0.9% NaCl solution without the compound to be tested. The plates were then incubated for 18 h at 37° C. whereafter the diameters of growth inhibition zones around each well were measured; the diameter of the well itself was not reduced. Finally, the diameters were converted to surface areas of growth inhibition (in square mm).

[2] = tested on: Acinetobacter baumannii ATCC 19606; assay: Growth inhibition around wells on LB agar plates; format: cell-based; settings: A. baumannii ATCC 19606
Method: as §1
(§2) Direct antibacterial activity of sixteen NAB compounds against Acinetobacter baumannii ATCC 19606 and Pseudomonas aeruginosa ATCC 27853 was tested by using the susceptibility determination method described in Example 2. Five compounds (NAB7062, NAB734, NAB737, NAB739, and NAB740) had very notable activity against A. baumannii. […] The antibacterial activity of NAB739 and NAB740 were as strong as or even stronger than that of polymyxin B.

[3] = tested on: Pseudomonas aeruginosa ATCC 27853; assay: Growth inhibition around wells on LB agar plates; format: cell-based; settings: Ps. aeruginosa ATCC 27853
Method: (§3) From an overnight-grown culture of IH3080 on LB agar, a suspension of approx. 10^8 cells/ml was prepared in 0.9% NaCl. Aliquots of this suspension were then pipetted on the agar plates and the plates were gently shaken to spread the suspension evenly on the entire surface of the plate. Thereafter, the unabsorbed part of the suspension was removed by using a Pasteur pipette. After the surface had dried, small wells (diameter, 2 mm) were drilled on the plates (five wells per plate) by using a sterile sharp-edged narrow metal tube, single-use pipette tip, and vacuum suction. An alternative method used a swab to spread the inoculum. Samples (4 μl and 10 μl) of the peptide solution in 0.9% NaCl (at concentrations of 1 μg/ml and 0.1 μg/ml) were then pipetted to the wells and the sample fluids were allowed to absorb. Controls included 0.9% NaCl solution without the compound to be tested. The plates were then incubated for 18 h at 37° C. whereafter the diameters of growth inhibition zones around each well were measured; the diameter of the well itself was not reduced. Finally, the diameters were converted to surface areas of growth inhibition (in square mm).
as §2

[4] = tested on: E. coli IH3080; assay: Sensitization to rifampin: growth inhibition around wells on LB plates containing rifampin; format: cell-based, Escherichia coli; settings: 4 μg of compound
Method: as §3

[5] = tested on: A. baumannii ATCC 19606; assay: as above; format: cell-based, Acinetobacter baumannii; settings: 4 μg
[6] = tested on: Ps. aeruginosa ATCC 27853; assay: as above; format: cell-based, Pseudomonas aeruginosa; settings: 4 μg

| Substance | growth inhibition around a well ([1]; 10 μg of compound per well) [square millimeters] | growth inhibition around a well ([2]; 4 μg) [square millimeters] | growth inhibition around a well ([2]; 10 μg) [square millimeters] | growth inhibition around a well ([3]; 4 μg) [square millimeters] | growth inhibition around a well ([3]; 10 μg) [square millimeters] | growth inhibition around a well in the presence of rifampin ([4]; rifampin 0 μg/ml) [square millimeters] | growth inhibition around a well in the presence of rifampin ([4]; rifampin 0.1 μg/ml) [square millimeters] | growth inhibition around a well in the presence of rifampin ([4]; rifampin 1.0 μg/ml) [square millimeters] | growth inhibition around a well in the presence of rifampin ([5]; rifampin 0 μg/ml) [square millimeters] | growth inhibition around a well in the presence of rifampin ([5]; rifampin 0.1 μg/ml) [square millimeters] | growth inhibition around a well in the presence of rifampin ([5]; rifampin 0.3 μg/ml) [square millimeters] | growth inhibition around a well in the presence of rifampin ([6]; rifampin 0 μg/ml) [square millimeters] | growth inhibition around a well in the presence of rifampin ([6]; rifampin 0.1 μg/ml) [square millimeters] | growth inhibition around a well in the presence of rifampin ([6]; rifampin 0.3 μg/ml) [square millimeters] | growth inhibition around a well ([1]; 4 μg of compound per well) [square millimeters] |
| --- | --- | --- | --- | --- | --- | --- | --- | --- | --- | --- | --- | --- | --- | --- | --- |
| OA-Thr-Dab-cy[Dab-Dab-DPhe-Leu-Abu-Dab-Thr-] [NAB 716] | 64 | 0 | 0 | 0 | 0 | 13 | 133 | 165 | 0 | 0 | 64 | 0 | 0 | 0 |  |
| DA-Thr-Abu-cy[Dab-Dab-DPhe-Leu-Dab-Dab-Thr-] [NAB 7062] | 99 | 13 | 38 | 0 | 0 | 50 |  | 104 | 13 | 50 | 95 | 0 | 0 | 7 |  |
| OA-Thr-Dab-cy[Dab-Dab-DPhe-Leu-Dab-Abu-Thr-] [NAB 717] | 0 | 0 | 0 | 0 | 0 | 0 | 71 | 95 | 0 | 0 | 50 | 0 | 0 | 0 | 0 |
| OA-Thr-Asn-cy[Dab-Dab-DPhe-Leu-Dab-Dab-Thr-] [NAB 746] | 13 | 0 | 0 | 0 | 20 | 0 | 79 | 95 | 0 | 64 | 95 | 0 | 7 | 0 | 0 |
| OA-Ala-Thr-DSer-cy[Dab-Dab-DPhe-Leu-Dab-Dab-Thr-] [NAB 749] | 158 | 20 | 38 | 20 | 28 | 133 | 133 | 177 | 20 | 154 | 201 | 20 | 20 | 13 | 113 |
| OA-Thr-Ser-cy[Dab-Dab-DPhe-Leu-Dab-Dab-Thr-] [NAB 743] | 79 | 0 | 0 | 28 | 38 | 38 | 133 | 227 | 0 | 38 | 227 | 28 | 28 | 28 | 38 |
| OA-Thr-Abu-cy[Dab-Dab-DLeu-Leu-Dab-Dab-Thr-] [NAB 718] | 0 | 0 | 0 | 0 | 0 | 0 | 13 | 133 | 0 | 0 | 38 | 0 | 0 | 0 | 0 |
